Laboratory results reported in paper PMC8800111 (The Journal of Biological Chemistry, 2021).

Key:
Format in all cases: cell-based
[1] = target: proteins of U3A human fibrosarcoma cells (4462 proteins detected) (Homo sapiens, UniProt O14737); conditions: protein PDCD5, U3A cells
[2] = target: proteins of U3A human fibrosarcoma cells (4462 proteins detected) (Homo sapiens, UniProt O60573); conditions: protein EIF4E2; soluble abundance after heat, U3A cells
[3] = target: proteins of U3A human fibrosarcoma cells (4462 proteins detected) (Homo sapiens, UniProt O75396); conditions: protein SEC22B; U3A cells
Sequence of proteins of U3A human fibrosarcoma cells (4462 proteins detected) (Homo sapiens, UniProt O75396) (O75396 whole entry): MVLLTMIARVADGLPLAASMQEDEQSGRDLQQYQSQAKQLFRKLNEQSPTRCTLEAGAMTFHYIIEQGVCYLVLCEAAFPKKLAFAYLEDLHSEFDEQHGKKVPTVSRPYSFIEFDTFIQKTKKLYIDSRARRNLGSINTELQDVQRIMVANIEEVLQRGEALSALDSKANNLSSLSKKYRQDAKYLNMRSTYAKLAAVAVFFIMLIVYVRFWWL

[4] = target: proteins of U3A human fibrosarcoma cells (4462 proteins detected) (Homo sapiens, UniProt P08582); conditions: protein MFI2; U3A cells
[5] = target: proteins of U3A human fibrosarcoma cells (4462 proteins detected) (Homo sapiens, UniProt P15153); conditions: protein RAC2; U3A, 10 μM, 2 h
[6] = target: proteins of U3A human fibrosarcoma cells (4462 proteins detected) (Homo sapiens, UniProt P17252); conditions: protein PRKCA; U3A cells
[7] = target: proteins of U3A human fibrosarcoma cells (4462 proteins detected) (Homo sapiens, UniProt P22413); conditions: protein ENPP1; U3A cells
[8] = target: proteins of U3A human fibrosarcoma cells (4462 proteins detected) (Homo sapiens, UniProt P28799); conditions: protein GRN; U3A cells
[9] = target: proteins of U3A human fibrosarcoma cells (4462 proteins detected) (Homo sapiens, UniProt P29317); conditions: protein EPHA2; soluble abundance after heat, U3A cells
Sequence of proteins of U3A human fibrosarcoma cells (4462 proteins detected) (Homo sapiens, UniProt P29317) (P29317 24-976): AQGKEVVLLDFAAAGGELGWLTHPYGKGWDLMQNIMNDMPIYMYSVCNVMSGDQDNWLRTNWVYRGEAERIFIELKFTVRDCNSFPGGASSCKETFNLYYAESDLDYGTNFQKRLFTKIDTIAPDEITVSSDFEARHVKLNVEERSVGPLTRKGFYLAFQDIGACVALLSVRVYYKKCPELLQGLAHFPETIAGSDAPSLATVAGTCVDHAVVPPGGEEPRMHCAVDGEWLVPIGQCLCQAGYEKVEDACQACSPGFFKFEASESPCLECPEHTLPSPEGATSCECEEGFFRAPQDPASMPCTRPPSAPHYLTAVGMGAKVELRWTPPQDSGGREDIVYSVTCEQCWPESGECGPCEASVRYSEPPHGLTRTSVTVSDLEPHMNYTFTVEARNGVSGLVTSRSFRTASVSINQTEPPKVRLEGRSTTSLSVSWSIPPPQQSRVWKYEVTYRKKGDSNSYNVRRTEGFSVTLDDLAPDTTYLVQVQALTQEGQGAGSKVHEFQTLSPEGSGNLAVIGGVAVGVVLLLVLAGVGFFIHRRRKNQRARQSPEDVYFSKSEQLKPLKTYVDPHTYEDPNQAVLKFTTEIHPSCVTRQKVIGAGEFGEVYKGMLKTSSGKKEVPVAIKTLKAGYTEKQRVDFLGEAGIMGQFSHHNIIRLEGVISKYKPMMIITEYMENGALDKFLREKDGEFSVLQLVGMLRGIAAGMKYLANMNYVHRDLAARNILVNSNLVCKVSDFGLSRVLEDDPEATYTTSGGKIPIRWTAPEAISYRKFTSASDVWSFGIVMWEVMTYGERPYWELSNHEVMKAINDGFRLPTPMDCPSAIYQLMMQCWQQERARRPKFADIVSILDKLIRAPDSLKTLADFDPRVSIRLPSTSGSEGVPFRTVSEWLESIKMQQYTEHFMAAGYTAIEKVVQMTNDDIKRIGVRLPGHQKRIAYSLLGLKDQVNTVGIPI

[10] = target: proteins of U3A human fibrosarcoma cells (4462 proteins detected) (Homo sapiens, UniProt P30519); conditions: protein HMOX2; U3A, 10 μM, 2 h
Sequence of proteins of U3A human fibrosarcoma cells (4462 proteins detected) (Homo sapiens, UniProt P30519) (P30519 whole entry): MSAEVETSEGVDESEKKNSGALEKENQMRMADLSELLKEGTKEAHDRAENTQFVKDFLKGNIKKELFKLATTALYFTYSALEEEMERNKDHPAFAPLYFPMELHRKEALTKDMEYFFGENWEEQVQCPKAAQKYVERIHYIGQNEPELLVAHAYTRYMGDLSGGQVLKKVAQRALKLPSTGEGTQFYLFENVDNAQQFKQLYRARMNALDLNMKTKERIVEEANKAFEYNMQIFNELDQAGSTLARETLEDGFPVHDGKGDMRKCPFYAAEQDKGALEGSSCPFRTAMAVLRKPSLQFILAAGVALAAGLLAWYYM

[11] = target: proteins of U3A human fibrosarcoma cells (4462 proteins detected) (Homo sapiens, UniProt P51946); conditions: protein CCNH; U3A cells
[12] = target: proteins of U3A human fibrosarcoma cells (4462 proteins detected) (Homo sapiens, UniProt P52943); conditions: protein CRIP2, U3A cells
Sequence of proteins of U3A human fibrosarcoma cells (4462 proteins detected) (Homo sapiens, UniProt P52943) (P52943 whole entry): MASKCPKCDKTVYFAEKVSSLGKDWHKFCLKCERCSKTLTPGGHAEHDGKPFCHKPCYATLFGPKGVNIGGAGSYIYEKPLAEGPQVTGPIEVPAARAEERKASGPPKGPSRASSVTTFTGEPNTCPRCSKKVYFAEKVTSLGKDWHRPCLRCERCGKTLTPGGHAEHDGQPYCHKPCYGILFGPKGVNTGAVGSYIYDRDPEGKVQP

[13] = target: proteins of U3A human fibrosarcoma cells (4462 proteins detected) (Homo sapiens, UniProt P62857); conditions: protein RPS28, U3A cells
[14] = target: proteins of U3A human fibrosarcoma cells (4462 proteins detected) (Homo sapiens, UniProt Q14790); conditions: protein CASP8; U3A, 10 μM, 2 h
[15] = target: proteins of U3A human fibrosarcoma cells (4462 proteins detected) (Homo sapiens, UniProt Q15599); conditions: protein SLC9A3R2, U3A cells
[16] = target: proteins of U3A human fibrosarcoma cells (4462 proteins detected) (Homo sapiens, UniProt Q6UWP8); conditions: protein SBSN, U3A cells
Sequence of proteins of U3A human fibrosarcoma cells (4462 proteins detected) (Homo sapiens, UniProt Q6UWP8) (Q6UWP8 26-590): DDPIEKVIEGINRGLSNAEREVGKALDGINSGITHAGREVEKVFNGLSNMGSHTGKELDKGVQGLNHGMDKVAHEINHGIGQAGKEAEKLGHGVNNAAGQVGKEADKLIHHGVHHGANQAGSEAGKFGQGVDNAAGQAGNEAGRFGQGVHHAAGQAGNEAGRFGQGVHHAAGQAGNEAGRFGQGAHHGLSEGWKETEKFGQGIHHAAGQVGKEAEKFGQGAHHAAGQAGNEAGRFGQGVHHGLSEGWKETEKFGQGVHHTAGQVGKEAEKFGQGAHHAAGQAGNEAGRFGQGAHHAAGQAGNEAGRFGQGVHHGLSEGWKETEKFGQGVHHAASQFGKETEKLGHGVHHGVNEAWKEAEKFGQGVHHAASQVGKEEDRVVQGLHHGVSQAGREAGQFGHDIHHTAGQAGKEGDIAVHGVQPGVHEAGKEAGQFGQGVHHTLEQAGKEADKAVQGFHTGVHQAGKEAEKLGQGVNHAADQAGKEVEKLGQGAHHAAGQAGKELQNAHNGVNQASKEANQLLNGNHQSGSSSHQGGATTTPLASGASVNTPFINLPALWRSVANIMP

[17] = target: proteins of U3A human fibrosarcoma cells (4462 proteins detected) (Homo sapiens, UniProt Q6ZQQ6); conditions: protein WDR87; U3A, 10 μM, 2 h
[18] = target: proteins of U3A human fibrosarcoma cells (4462 proteins detected) (Homo sapiens, UniProt Q7Z3E5); conditions: protein ARMC9; U3A, 10 μM, 2 h
[19] = target: proteins of U3A human fibrosarcoma cells (4462 proteins detected) (Homo sapiens, UniProt Q8N465); conditions: protein D2HGDH; soluble abundance after heat, U3A cells
Sequence of proteins of U3A human fibrosarcoma cells (4462 proteins detected) (Homo sapiens, UniProt Q8N465) (Q8N465 14-521): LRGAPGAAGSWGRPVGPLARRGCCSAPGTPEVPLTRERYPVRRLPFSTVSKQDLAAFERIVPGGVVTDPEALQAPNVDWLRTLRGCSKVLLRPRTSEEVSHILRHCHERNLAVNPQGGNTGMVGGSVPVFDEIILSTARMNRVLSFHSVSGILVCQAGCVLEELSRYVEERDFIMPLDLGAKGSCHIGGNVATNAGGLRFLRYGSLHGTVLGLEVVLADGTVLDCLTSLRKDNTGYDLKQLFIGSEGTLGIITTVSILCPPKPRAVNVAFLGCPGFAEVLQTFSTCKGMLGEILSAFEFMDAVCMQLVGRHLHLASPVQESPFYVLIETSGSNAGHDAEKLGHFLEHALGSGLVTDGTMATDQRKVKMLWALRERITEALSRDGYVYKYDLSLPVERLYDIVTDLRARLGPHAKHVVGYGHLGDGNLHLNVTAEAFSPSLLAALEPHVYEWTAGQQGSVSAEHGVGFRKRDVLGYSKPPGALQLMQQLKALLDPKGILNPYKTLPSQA

[20] = target: proteins of U3A human fibrosarcoma cells (4462 proteins detected) (Homo sapiens, UniProt Q96PV6); conditions: protein LENG8; U3A, 10 μM, 2 h
[21] = target: proteins of U3A human fibrosarcoma cells (4462 proteins detected) (Homo sapiens, UniProt Q96T60); conditions: protein PNKP; U3A, 10 μM, 2 h
[22] = target: proteins of U3A human fibrosarcoma cells (4462 proteins detected) (Homo sapiens, UniProt Q99633); conditions: protein PRPF18; U3A cells
Sequence of proteins of U3A human fibrosarcoma cells (4462 proteins detected) (Homo sapiens, UniProt Q99633) (Q99633 whole entry): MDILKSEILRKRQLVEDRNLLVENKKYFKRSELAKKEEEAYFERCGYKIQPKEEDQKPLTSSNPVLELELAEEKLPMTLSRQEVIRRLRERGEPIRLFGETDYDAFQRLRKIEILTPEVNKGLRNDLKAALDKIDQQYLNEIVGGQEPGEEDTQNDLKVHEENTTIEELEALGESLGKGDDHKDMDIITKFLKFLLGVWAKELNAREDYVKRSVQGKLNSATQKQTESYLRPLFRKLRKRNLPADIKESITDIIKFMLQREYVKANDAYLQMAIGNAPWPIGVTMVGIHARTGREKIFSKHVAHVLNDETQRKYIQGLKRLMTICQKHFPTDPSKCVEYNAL

[23] = target: proteins of U3A human fibrosarcoma cells (4462 proteins detected) (Homo sapiens, UniProt Q99832); conditions: protein CCT7; U3A cells
[24] = target: proteins of U3A human fibrosarcoma cells (4462 proteins detected) (Homo sapiens, UniProt Q9H832); conditions: protein UBE2Z; U3A, 10 μM, 2 h
Sequence of proteins of U3A human fibrosarcoma cells (4462 proteins detected) (Homo sapiens, UniProt Q9H832) (Q9H832 whole entry): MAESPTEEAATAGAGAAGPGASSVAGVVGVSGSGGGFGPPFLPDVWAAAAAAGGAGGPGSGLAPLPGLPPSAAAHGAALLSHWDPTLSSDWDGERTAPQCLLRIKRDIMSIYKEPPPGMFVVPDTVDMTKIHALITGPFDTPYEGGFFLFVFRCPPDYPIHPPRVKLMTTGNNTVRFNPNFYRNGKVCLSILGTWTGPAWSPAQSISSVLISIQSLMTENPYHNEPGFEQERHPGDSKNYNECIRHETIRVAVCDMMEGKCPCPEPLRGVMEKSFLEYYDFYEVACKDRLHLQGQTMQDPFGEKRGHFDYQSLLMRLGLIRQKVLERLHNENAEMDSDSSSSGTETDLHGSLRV

[25] = target: proteins of U3A human fibrosarcoma cells (4462 proteins detected) (Homo sapiens, UniProt Q9H8M7); conditions: protein FAM188A, U3A cells
[26] = target: proteins of U3A human fibrosarcoma cells (4462 proteins detected) (Homo sapiens, UniProt Q9NVT9); conditions: protein ARMC1; U3A cells
[27] = target: proteins of U3A human fibrosarcoma cells (4462 proteins detected) (Homo sapiens, UniProt Q9NYZ3); conditions: protein GTSE1; U3A cells
[28] = target: proteins of U3A human fibrosarcoma cells (4462 proteins detected) (Homo sapiens, UniProt Q9UBV8); conditions: protein PEF1; U3A, 10 μM, 2 h
[29] = target: proteins of U3A human fibrosarcoma cells (4462 proteins detected) (Homo sapiens, UniProt Q9UKX7); conditions: protein NUP50; soluble abundance after heat, U3A cells

Sequence of proteins of U3A human fibrosarcoma cells (4462 proteins detected) (Homo sapiens, UniProt O14737) (O14737 whole entry): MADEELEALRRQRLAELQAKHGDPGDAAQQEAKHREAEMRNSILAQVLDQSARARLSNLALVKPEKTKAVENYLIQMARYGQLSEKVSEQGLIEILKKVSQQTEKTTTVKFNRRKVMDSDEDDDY

Question: For CCc1nc(N)nc(N)c1-c1ccc(Cl)cc1 [pyrimethamine], which “Log2 (PYR/DMSO)” value [1] is on record?
Answer: -0.04

Question: What about the “Log2 (PYR/DMSO)” value [2] of the same compound?
Answer: 0.15

Question: What about the “Log2 (PYR/DMSO)” value [3] of the same compound?
Answer: 0.21

Question: What about the “Log2 (PYR/DMSO)” value [4] of the same compound?
Answer: 0.18

Question: And the “Log2 (PYR/DMSO), RAC2” value [5]?
Answer: -0.15

Question: And the “Log2 (PYR/DMSO)” value [6]?
Answer: 0.16

Question: And the “Log2 (PYR/DMSO)” value [7]?
Answer: 0.22

Question: And the “Log2 (PYR/DMSO)” value [8]?
Answer: 0.21

Question: And the “Log2 (PYR/DMSO)” value [9]?
Answer: 0.15

Question: What about the “Log2 (PYR/DMSO), HMOX2” value [10] of the same compound?
Answer: 0.25

Question: And the “Log2 (PYR/DMSO)” value [11]?
Answer: 0.16

Question: And the “Log2 (PYR/DMSO)” value [12]?
Answer: -0.04

Question: And the “Log2 (PYR/DMSO)” value [13]?
Answer: -0.05

Question: What about the “Log2 (PYR/DMSO), CASP8” value [14] of the same compound?
Answer: 0.34

Question: What about the “Log2 (PYR/DMSO)” value [15] of the same compound?
Answer: -0.05

Question: What about the “Log2 (PYR/DMSO)” value [16] of the same compound?
Answer: -0.05

Question: What about the “Log2 (PYR/DMSO), WDR87” value [17] of the same compound?
Answer: -0.16

Question: And the “Log2 (PYR/DMSO), ARMC9” value [18]?
Answer: -0.15

Question: What about the “Log2 (PYR/DMSO)” value [19] of the same compound?
Answer: 0.15

Question: And the “Log2 (PYR/DMSO), LENG8” value [20]?
Answer: 0.27

Question: What about the “Log2 (PYR/DMSO), PNKP” value [21] of the same compound?
Answer: -0.22

Question: What about the “Log2 (PYR/DMSO)” value [22] of the same compound?
Answer: 0.16

Question: And the “Log2 (PYR/DMSO)” value [23]?
Answer: 0.18

Question: And the “Log2 (PYR/DMSO), UBE2Z” value [24]?
Answer: 0.25

Question: And the “Log2 (PYR/DMSO)” value [25]?
Answer: -0.04

Question: And the “Log2 (PYR/DMSO)” value [26]?
Answer: 0.16

Question: What about the “Log2 (PYR/DMSO)” value [27] of the same compound?
Answer: 0.20

Question: And the “Log2 (PYR/DMSO), PEF1” value [28]?
Answer: 0.24

Question: And the “Log2 (PYR/DMSO)” value [29]?
Answer: 0.15
